Each structure is given as a SMILES string. Active and inactive are the calls of the source.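 How the source made its calls: active means IC50 against T. cruzi CYP51 below a set limit; inactive means the rest.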

The target in the assay is Sterol 14-alpha demethylase (Trypanosoma cruzi (strain CL Brener)) (UniProt Q7Z1V1). In words: T. cruzi sterol 14-alpha demethylase inhibition – biochemical, recombinant enzyme, mechanism study for T. cruzi antiparasitic project, dose response (AID 1159558).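 Further: enzyme in bacterial membranes with Anopheles gambiae CYP reductase and cytochrome b5 partners.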 The following applies: recombinant T. cruzi CYP51, BOMCC fluorescence.
Sequence of Sterol 14-alpha demethylase (Trypanosoma cruzi (strain CL Brener)) (Q7Z1V1 whole entry, looked up): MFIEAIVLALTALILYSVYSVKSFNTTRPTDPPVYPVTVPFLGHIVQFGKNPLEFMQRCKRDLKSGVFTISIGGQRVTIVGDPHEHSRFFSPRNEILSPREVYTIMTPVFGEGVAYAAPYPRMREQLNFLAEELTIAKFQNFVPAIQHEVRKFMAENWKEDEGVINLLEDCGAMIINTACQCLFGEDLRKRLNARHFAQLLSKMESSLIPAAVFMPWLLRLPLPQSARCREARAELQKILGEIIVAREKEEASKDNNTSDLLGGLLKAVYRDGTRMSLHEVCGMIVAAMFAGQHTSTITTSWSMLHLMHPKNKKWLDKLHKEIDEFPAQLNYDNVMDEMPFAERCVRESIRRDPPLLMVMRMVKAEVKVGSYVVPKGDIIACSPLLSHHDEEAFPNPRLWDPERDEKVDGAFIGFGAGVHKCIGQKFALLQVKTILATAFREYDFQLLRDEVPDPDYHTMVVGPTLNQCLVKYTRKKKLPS
As for `Cc1cc(NC(=O)C2CC2)ccc1OC1CCN(Cc2ccco2)CC1`, the IC50 was 63 µM.
Then `Cc1ccc(NC(=O)c2ccnc(N3CCCC3)c2)cc1-c1cc(C(N)=O)ccc1C`, with 4 µM; and `Cc1ccnc(NS(=O)(=O)c2ccc(NC(=O)c3ccc([N+](=O)[O-])s3)cc2)n1`, with 63 µM; and `Cc1cc(NC(=O)C2CCCCC2)n(-c2nc3c(c(=O)[nH]2)CCC3)n1`, with > 100 µM (inactive).
Turning to `CCN(CC)c1ccc(S(=O)(=O)N(CC)CC)c2nonc12`, the IC50 is 25 µM.
With `NC(=O)c1ccccc1Nc1nc(NC2CCCCC2)nc2[nH]ccc12` the figure was > 100 µM (inactive); with `COc1cc(NC(=O)Nc2cccc(CNC(=O)OC3CCCCC3)c2)ccc1-c1cnco1`, 25 µM; with `Cc1c(C#N)c([N+](=O)[O-])nn1Cc1cccc(Cl)c1Cl`, > 100 µM (inactive).
With `COc1ccccc1C(=O)Nc1nnc(-c2ccc3c(c2)OCO3)s1` the figure was > 100 µM (inactive); with `O=C(Nc1nc(-c2ccccn2)cs1)N1C[C@H]2C[C@@]2(c2ccccc2)C1`, 40 µM; with `c1ccc(Nc2nc3ccccc3[nH]2)nc1`, > 100 µM (inactive).
Then `COc1ccc2ncc(Cl)c(CCN3CC[C@H](NCc4cc5c(cn4)OCS5)[C@@H](O)C3)c2n1`, with 7.9 µM; and `CC1=C(C(=O)Nc2ccc(Cl)cc2)C(c2ccncc2)n2ncc(C(=O)Nc3ccccc3)c2N1` (configuration not stated), with 0.13 µM.
As to `Cc1cc2nc(N3CC[C@H]3C(N)=O)nc(Nc3cc(C4CC4)[nH]n3)c2s1`, the IC50 is > 100 µM (inactive).
Then `COc1cc(Cl)c(C)cc1NC(=O)c1ccc([N+](=O)[O-])s1`, with 16 µM.
With `COc1cccc(CN(C)Cc2nc(N)c3c(C)c(C)sc3n2)c1` the figure was > 100 µM (inactive); with `O=C(CN1CCC2(O)CCCCC2C1c1ccc2c(c1)OCO2)Nc1ccc(Cl)cc1Cl` (configuration not stated), 13 µM.
In the case of `CNc1cc(Cn2c(C(=O)c3cc(C)cc(Cl)c3)c(C(C)C)c(=O)[nH]c2=O)ccn1`, the IC50 was 0.032 µM.
With `Cc1ccc(C)c(OC2CCN(C(=O)C(C)n3ccnc3)CC2)c1` (configuration not stated) the figure was 0.1 µM.
Then `COc1ccc(S(=O)(=O)Nc2ccc(C(=O)Nc3nc(-c4ccccn4)cs3)cc2)cc1`, with 0.4 µM; and `Cn1c(CC(=O)NNC(=O)c2ccc3ccccc3n2)nc2ccccc21`, with 32 µM; and `CC(C(=O)Nc1ccc(Br)cc1)N1CCN(c2ccc([N+](=O)[O-])cc2)CC1` (configuration not stated), with 40 µM.
In the case of `N#Cc1cccc(Nc2nccc(N3CCC(NS(=O)(=O)c4cccc(C#N)c4)CC3)n2)c1`, the IC50 was 7.9 µM.
With `c1cc(-c2ncc(-c3ccn[nH]3)s2)ccn1`, the IC50 was 0.04 µM.
For `COc1cc2c(cc1OC)[C@H]1[C@@H](C)c3ccc(OC)c(OC)c3CN1CC2`, the IC50 was 79 µM.
Then `Cc1ccc2nc(N(Cc3cccnc3)C(=O)CCc3ccccc3)sc2c1`, with 0.063 µM; and `CC(C)(C)CC(=O)NCCc1csc(-c2ccc(F)cc2)n1`, with 20 µM; and `Cc1cc(NC(=O)CC2CCCCC2)n(-c2nc3c(c(=O)[nH]2)CCC3)n1`, with > 100 µM (inactive).
With `COc1cnc2ccc(=O)n(CCN3CCC(NC/C=C/c4cc(F)ccc4F)CC3)c2c1`, the half-inhibitory concentration (IC50) is 16 µM.
As to `CN(CCOc1ccc(Cl)cc1)Cc1nc(N)nc(N(C)C)n1`, the IC50 was 32 µM.
For `O=c1ccn(-c2ccc([N+](=O)[O-])cc2Cl)c2ccc(F)cc12`, the IC50 is 16 µM.
With `Cc1nc2c(-c3n[nH]c(-c4ccccc4N)n3)cccn2c1C` the figure was 3.2 µM.
On to `Cc1nc(-c2ccc3c(c2)OCO3)sc1C(=O)NCc1ccc2c(c1)OCO2`, for which the IC50 is 5 µM.
With `COc1ccc2ncc(Cl)c(CCN3CC[C@@H](NCc4cc5c(cn4)OCS5)[C@H](O)C3)c2n1` the figure was 1 µM.
With `CCn1c(-c2nonc2N)nc2c([C@@H](C)O)ncc(O[C@H](CN)c3ccccc3)c21` the figure was 25 µM; with `C=CCOCC1Cn2nc([N+](=O)[O-])nc2O1` (configuration not stated), > 100 µM (inactive).
Regarding `CC(C)Nc1nccc(-c2c(-c3ccc(F)cc3)ncn2C2CCOCC2)n1`, the IC50 was > 100 µM (inactive).
Then `CCOc1ccc(NC(=O)c2ccc(NC(=O)NC3CCCCC3)cc2)cc1`, with > 100 µM (inactive); and `Cc1ncsc1CNc1cnc(-c2ccc3c(c2)OCCO3)c(-c2cnn(C)c2)c1`, with 7.9 µM.
For the molecule `O=C(Nc1ccc(-c2nc3ccccc3c(=O)[nH]2)cc1)c1cccs1`, the IC50 is > 100 µM (inactive).
In the case of `Cc1ccc(NC(=O)c2ccc([N+](=O)[O-])s2)cc1S(=O)(=O)N1CCOCC1`, the IC50 is 20 µM.
With `O=C(Nc1nc(-c2ccc(F)cc2)cs1)c1ccc([N+](=O)[O-])s1` the figure was 50 µM.
Turning to `COc1ccc([N+](=O)[O-])cc1NC(=O)Nc1cccc(Cl)c1`, the IC50 is > 100 µM (inactive).
Then `CNC(=O)C1Cc2ccccc2N1C(=O)Cc1ccc(OC)cc1` (configuration not stated), with > 100 µM (inactive); and `O=C1COC(c2ccccc2)(c2ccccc2)CN1C1CCN(Cc2ccc(-n3ccnc3)cc2)CC1`, with 0.079 µM.
With `Cc1cc(C#N)c([N+](=O)[O-])cc1Br` the figure was 7.9 µM; with `COc1ccc(-c2cc(C)no2)cc1S(=O)(=O)Nc1ccc(C)c(C)c1`, 16 µM; with `O=C(CN1CCN(c2ccccn2)CC1)Nc1cc(S(=O)(=O)N2CCCCCC2)ccc1Cl`, 3.2 µM.
With `COc1ccc(Nc2nc(NC3CCC(O)CC3)ncc2Br)c(C(N)=O)c1` (configuration not stated) the figure was 13 µM; with `N#Cc1cc(N2CCCC2=O)ccc1Sc1ccccc1CO`, 20 µM; with `Cc1ccc2c(c1)-c1onc(C(=O)N3CCCCC3c3cccnc3)c1CO2` (configuration not stated), 0.1 µM.
`Cc1cccc(NS(=O)(=O)c2ccc3c(c2)C(=O)c2cc(S(=O)(=O)Nc4cccc(C)c4C)ccc2-3)c1C`: the IC50 was > 100 µM (inactive).
As to `COc1ccc([N+](=O)[O-])cc1NC(=O)c1cc(Cl)ccc1O`, the IC50 is > 100 µM (inactive).
With `CCC(=O)Nc1ccccc1C(=O)Nc1ccccn1` the figure was > 100 µM (inactive).
With `COc1ccc(NC(=O)c2ccc(NC(=O)CN(c3ccccc3C)S(C)(=O)=O)cc2)cc1` the figure was 6.3 µM.
Then `CC(=O)NCCNc1cc(-c2ccnc(Nc3cccc(Cl)c3)n2)ccn1`, with 5 µM; and `Cc1c(C(C)NC(=O)Nc2cccc(Cl)c2)sc2ncnn12` (configuration not stated), with 0.13 µM.
As for `CC(C)(C)C(=O)NCCc1csc(-c2ccc(F)cc2)n1`, the IC50 is 79 µM.
With `O=C(NC1C(=O)N(c2ccccc2)C1c1cccnc1)c1ccc(Cl)s1` (configuration not stated) the figure was 0.2 µM; with `Clc1ccc(OCCN2CCCCC2c2cccnc2)c(Cl)c1` (configuration not stated), 0.063 µM.
For the molecule `CN1CCN(c2nc(-c3ccc(Cl)cc3)c3c(N)n(C)nc3n2)CC1`, the IC50 was > 100 µM (inactive).
`COc1ccc(-c2cnc(C)o2)cc1S(=O)(=O)Nc1ccc(C)cc1C`: the half-inhibitory concentration (IC50) was 25 µM.
`Cc1ccccc1CNc1cc(C2CC2)nc(-c2nccn2C)n1`: the IC50 was 16 µM.
As for `CC1CCCCN1C(=O)NCCc1coc(-c2ccc(F)cc2)n1` (configuration not stated), the IC50 was > 100 µM (inactive).
As to `c1ccc(CNc2cccc3ccncc23)cc1`, the IC50 was 0.1 µM.
Turning to `O=C(NCCc1cccnc1)c1csc(-c2ccccc2)n1`, the 50% inhibitory concentration (IC50) was 0.063 µM.
Consider `CC(C)C[C@H](NC(=O)c1ccc(-c2ccccc2)o1)C(=O)NC1(C#N)CC1`, for which the IC50 was > 100 µM (inactive).
With `CCc1cccc(CC)c1-n1c(SCC(=O)N2CC(=O)Nc3ccccc32)nnc1-c1cccnc1` the figure was 3.2 µM.
In the case of `O=C(NCC1CCCCC1)c1cnns1`, the IC50 is > 100 µM (inactive).
With `Cc1cc(C)cc(NS(=O)(=O)c2cc(-c3cc(C)[nH]n3)ccc2C)c1` the figure was 7.9 µM.
With `O=c1cc(NCCCNCc2c[nH]c3ccc(Br)cc23)[nH]c2ccccc12` the figure was > 100 µM (inactive); with `CC(C)(C)CC(=O)NCc1noc(COc2ccccc2)n1`, 50 µM; with `CN(C)CCOc1ccc(N2CCN(S(=O)(=O)c3ccc(Cl)cc3)CC2)cc1`, 25 µM.
With `Cc1cc(N(C)C)nc2ccc(Cc3cnc(N)nc3N)cc12` the figure was > 100 µM (inactive); with `O=C(CN1CCN(S(=O)(=O)c2cccc([N+](=O)[O-])c2)CC1)Nc1ccc(Oc2ccccc2)cc1`, 2.5 µM.
For `Cc1cc(NC(=O)c2ccc([N+](=O)[O-])s2)ccc1Br`, the IC50 was 10 µM.
As for `OCCCNc1nc(Nc2ccncc2)nc2ccccc12`, the IC50 is > 100 µM (inactive).
With `Cc1nnnn1-c1cccc(C(=O)N2CCC[C@@]3(C)c4ncncc4CCC23)c1` (some centres not stated) the figure was 25 µM.
Then `Cc1occc1C(=O)Nc1ccccc1C(=O)Nc1nccs1`, with > 100 µM (inactive); and `O=C1CN(Cc2ccco2)C2CS(=O)(=O)CC2N1c1ccc(Cl)cc1` (configuration not stated), with > 100 µM (inactive).
Then `COc1ccc2ncc(F)c(CCN3CC[C@@H](NC(=O)c4cc5c(s4)CCC5)[C@@H](O)C3)c2n1`, with 1.3 µM; and `CN(C(=O)Nc1ccc2c(c1)CCN(C1CCC1)CC2)c1ccc(C#N)cc1`, with > 100 µM (inactive); and `O=C(c1ccc(Cl)cc1)c1ccc(OC(=O)N2CCOCC2)cc1`, with 40 µM.
With `CCOc1cnn(C)c(=O)c1Nc1ccc(C(=O)NCc2ccc(F)cc2)cc1`, the IC50 is 4 µM.
With `Cc1cc(N(C)C)nc(Nc2ccccc2C)n1` the figure was > 100 µM (inactive).
On to `CCOc1ccc(NC(=O)C=Cc2ccc(CC)o2)cc1`, for which the IC50 is > 100 µM (inactive).
On to `O=C(CC1(O)C(=O)N(Cc2cccs2)c2ccc(Br)cc21)c1cccnc1` (configuration not stated), for which the IC50 was 13 µM.
On to `COc1ccc(NS(=O)(=O)c2cc(-c3cc(C)[nH]n3)ccc2C)cc1OC`, for which the IC50 was 40 µM.
Consider `OCC1CCCCN1c1cc(-c2ccccn2)nc(Nc2ccccc2)n1` (configuration not stated), for which the concentration for half-maximal inhibition (IC50) is 79 µM.
For `O=C(c1cccc(Cl)c1Cl)N1CCn2c1nc(-c1ccncc1)cc2=O`, the half-maximal inhibitory concentration (IC50) was 0.063 µM.
Then `O=c1[nH]c(C=Cc2cccc(OCCOc3ccccc3)c2)nc(O)c1[N+](=O)[O-]`, with > 100 µM (inactive); and `O=C(Nc1nc2ccccc2[nH]1)c1c(O)c2cccc3c2n(c1=O)CC3`, with > 100 µM (inactive).

What is called IC50 is the concentration needed to halve the response being measured.

For the origin of these results see PubChem BioAssay AID1159558 (GlaxoSmithKline (GSK), 2015).
